The results in this text go back to article PMC12535076, “Neurotherapeutic effects of Vutiglabridin as a Paraoxonase-2 modulator in preclinical models of Parkinson’s disease” (Molecular Neurodegeneration, 2025).

Molecules are shown by their SMILES.

Assay [1] relates to MPTP-injected C57BL/6 mice. As to the kind of experiment: MPTP-injected sub-acute PD mouse model (pole test, rotarod, TH immunohistochemistry). It counts as in vivo. Here is the method: Animals were allowed at least 1 week of acclimatization before being subjected to the study and were housed in a regulated environment with a 12-h/12-h light/dark cycle. Food and water were provided ad libitum. The animal experiment was carried out in accordance with the National Institutes of Health Guide for the Care and Use of Laboratory Animals (NIH Publications No. 80–23; revised 1996). All procedures for handling mice were carried out in accordance with “Principles of Laboratory Animal Care” and the Animal Care and Use guidelines of Kyung Hee University, Seoul, Korea (KHSASP-20-163).
MPTP was dissolved in distilled water and injected intraperitoneally for five days from day 10 of the 21-day experiment period. Vuti or rasagiline was administered via oral gavage for 21 days. Vehicles for both Vuti and MPTP (distilled water) were administered to all mice. Mice were randomly divided for all studies. For the first set of studies shown in Fig. 3, each group consisted of 5 animals.
To determine forelimb and hindlimb motor coordination and balance, we performed the rotarod test as described previously. Also, the pole test was performed to measure bradykinesia. For the rotarod test, the animals were pre-trained on the rotating bar of a rotarod unit set (LE 8500, Letica, Spain) on days 18 and 19 before the test on day 20. During pre-training, three trials per day were performed (5 rpm rotation speed on the first day, 15 rpm rotation speed on the second day). Mice were kept on the rotating bar (7.3-cm diameter) for 5 min on each trial. On day 20, the time spent on the rotating bar at 20 rpm, which was defined as the latent period, was recorded. Performance was recorded as 300 s if the latent period exceeded 300 s. Mice had at least 5 min of rest between trials to reduce stress and fatigue. Each animal underwent three test trials, and the mean of the test results was subjected to statistical analysis. For the pole test, mice were held on the top of the pole (diameter 8 mm, height 55 cm, with a rough surface). The time to land down and place four fee on the floor was recorded as the time for locomotion activity (T-LA).
On day 21, mice were anesthetized with sodium pentobarbital (50 mg/kg intraperitoneally) and transcardially perfused with saline containing 0.5% sodium nitrate and heparin (10 U/mL) and then fixed with 4% PFA in 0.1 M phosphate-buffer (PB, pH 7.2). Dissected brains were post-fixed overnight in buffered 4% PFA at 4 °C and stored in a 30% sucrose solution until they sank. Brains were cryosectioned into 30 μm thick coronal sections in a Cryostat (Microsystems AG, Leica, Wetzlar, Germany) and stored until use at 4℃ in a cryoprotectant (25% ethylene glycol, 25% glycerol, 0.2 M PB, and water). All sections were collected in six separate series and processed for immunostaining.
Free-floating brain sections were processed with the avidin-biotin peroxidase complex (ABC) complex (Vector Laboratories, Burlingame, CA, USA) method. Briefly, brain sections were incubated with primary rabbit anti-TH antibodies (1:1000; Pel-Freez Biologicals, Rogers, AR, USA) overnight at 4 °C, with biotinylated anti-rabbit IgG (1:400) for 1 h at room temperature, and then with the ABC solution (1:1:200) for 1 h at room temperature. The immunoperoxidase signals of TH was detected by incubating sections with 0.5 mg/ml 3,3′-diaminobenzidine (Sigma, St. Louis, MO, USA) in 0.1 M PB containing 0.003% H2O2. Stained brain sections were mounted on gelatin-coated slides and imaged under a bright-field microscope (Olympus Optical, Tokyo, Japan). TH-positivity in the ST was measured by the optical density of TH-positive fibers at x40 magnification using ImageJ software (National Institutes of Health, Bethesda, MD, USA). TH-positive cells in the SNpc in brain tissue Sect. (5 sections/series) were counted at x100 magnification as previously described. […]

Assay [2] concerns the target T1, MAO-A (Homo sapiens, UniProt P21397).
T1 sequence (P21397 1-527): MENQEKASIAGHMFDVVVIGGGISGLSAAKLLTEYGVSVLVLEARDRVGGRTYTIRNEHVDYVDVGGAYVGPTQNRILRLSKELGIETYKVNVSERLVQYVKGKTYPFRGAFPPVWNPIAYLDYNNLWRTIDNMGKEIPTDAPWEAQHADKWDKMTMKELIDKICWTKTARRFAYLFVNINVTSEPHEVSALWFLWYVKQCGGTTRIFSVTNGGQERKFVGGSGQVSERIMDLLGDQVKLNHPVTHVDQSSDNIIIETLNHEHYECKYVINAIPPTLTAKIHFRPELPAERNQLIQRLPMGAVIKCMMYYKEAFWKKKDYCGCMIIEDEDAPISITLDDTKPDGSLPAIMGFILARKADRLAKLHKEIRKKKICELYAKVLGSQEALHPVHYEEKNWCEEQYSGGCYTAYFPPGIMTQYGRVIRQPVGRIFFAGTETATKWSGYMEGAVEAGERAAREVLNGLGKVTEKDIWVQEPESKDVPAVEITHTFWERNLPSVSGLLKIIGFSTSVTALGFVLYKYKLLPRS
As to the kind of experiment: ROS Glo based MAO-A enzyme activity assay. In kind it is biochemical. Particulars: printed as 'separate MAO-B assay' within the MAO-A panel (b); read-out: IC50, ROS-Glo method, panel (b). On the procedure: (§1) An enzyme solution was prepared by diluting 10 µL of a 2.5 mg/mL MAO-A or MAO-B stock in 10 mL of 50 mM sodium phosphate buffer (pH 7.4). A substrate solution was prepared by diluting 200 µL of a 100 mM benzylamine (or tyramine) stock in 10 mL phosphate buffer to achieve a final concentration of 1 mM. For each 96-well plate experiment, 12.5 µL of a 1× H2O2 probe solution was added to 1 mL of the probe dilution buffer from the ROS Glo™ kit. Separately, 40 µL of cysteine and enhancer were diluted into 4 mL of Luciferin solution. In each well, 49 µL of the enzyme solution was dispensed, followed by 1 µL of the test compound, and incubated for 30 min. Then, 49 µL of the substrate solution was added, and the reaction proceeded at 37 °C for 60 min. Next, 10 µL of the H2O2 probe solution was added and incubated for 15 min. Subsequently, 40 µL of a luciferin solution containing cysteine and an enhancer was added, followed by an additional 30-minute incubation at 37 °C. Luminescence was subsequently recorded using a microplate luminescence reader (SpectraMax i3, Molecular Devices).

Assay [3] concerns the target T2, MAO-B (Homo sapiens, UniProt P27338).
T2 sequence (P27338 1-520): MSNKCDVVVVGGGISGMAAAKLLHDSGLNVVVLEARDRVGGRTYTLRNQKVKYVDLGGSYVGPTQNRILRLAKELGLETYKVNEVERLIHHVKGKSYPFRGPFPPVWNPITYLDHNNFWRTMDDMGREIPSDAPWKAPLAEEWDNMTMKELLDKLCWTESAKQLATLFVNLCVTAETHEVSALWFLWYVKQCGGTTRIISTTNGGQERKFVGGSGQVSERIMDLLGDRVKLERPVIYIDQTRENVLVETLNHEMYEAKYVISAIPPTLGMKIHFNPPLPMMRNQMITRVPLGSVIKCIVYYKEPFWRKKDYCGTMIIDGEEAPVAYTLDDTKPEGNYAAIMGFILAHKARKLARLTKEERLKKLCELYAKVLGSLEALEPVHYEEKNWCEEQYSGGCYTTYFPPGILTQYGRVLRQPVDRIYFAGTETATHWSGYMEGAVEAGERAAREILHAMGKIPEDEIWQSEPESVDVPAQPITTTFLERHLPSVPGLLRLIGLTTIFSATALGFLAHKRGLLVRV
As to the kind of experiment: ROS Glo based MAO-B enzyme activity assay. In kind it is biochemical. Particulars: read-out: IC50, MAO-B assay, ROS-Glo method. Here is the method:
as §1, with “Then, 49 µL of the substrate solution was added, and the reaction proceeded at 37 °C for 60 min.” left out, “Subsequently, 40 µL of a luciferin solution containing cysteine and an enhancer was added, followed by an additional 30-minute incubation at 37 °C.” left out

The target of assay [4] is T1, MAO-A. As to the kind of experiment: HRP/Amplex red based MAO-A enzyme activity assay. The settings on record: read-out: IC50, MAO-A assay, HRP/AR method. It counts as biochemical. Here is the method:
(§2) MAO-A or MAO-B enzyme solutions were prepared by diluting 10 µL of a 2.5 mg/mL MAO-A or MAO-B stock into 10 mL of 50 mM sodium phosphate buffer (pH 7.4). A substrate assay mixture was then prepared by combining benzylamine (for MAO-B) or tyramine (for MAO-A) from a 100 mM stock (200 µL in 10 mL phosphate buffer, final concentration 1 mM) with 100 µL of a 20 mM AR reagent stock (final concentration 0.1 mM) and 100 µL of a 200 U/mL HRP stock (final concentration 1 U/mL) in 10 mL phosphate buffer. […] Next, 50 µL of the substrate assay mixture was added, and the reaction was carried out at 37 °C for 60 min. The production of resorufin was quantified by fluorescence measurement (excitation at 540 nm and emission at 580 nm).

The target of assay [5] is T2, MAO-B. As to the kind of experiment: HRP/Amplex red based MAO-B enzyme activity assay. It counts as biochemical. The settings on record: read-out: IC50, MAO-B assay, HRP/AR method. On the procedure:
as §2

Setting [6] is: MPTP mice, Vuti 1, 50, 100 mg/kg/day or rasagiline 0.1 mg/kg/day orally for 21 days.

As for `CN1CC=C(c2ccccc2)CC1` [MPTP, 1-methyl-4-phenyl-1,2,3,6-tetrahydropyridine, reference compound], in assay [1] (MPTP 30 mg/kg/day i.p. for 5 days, no drug, vs 5.2 ± 0.9 s vehicle-only), the “latency time to reach the floor (T-LA) in the pole test” value is 9.6 ± 2.1 s. Further, the “latency to fall in the rotarod test” value in assay [1] (MPTP 30 mg/kg/day i.p. for 5 days, no drug, vs 196.4 ± 77.3 s vehicle-only) is listed as 63.5 ± 34.5 s.
For the compound `C#CCN[C@@H]1CCc2ccccc21` [rasagiline, Rasagiline, reference compound], in assay [1] (setting [6]), the “effect on T-LA in the pole test” value is on record as “significantly normalized” and the “effect on latency to fall in the rotarod test” value is listed as “significantly normalized”.
Turning to `CC1(C)C=Cc2c(ccc3c2OC[C@@H](c2ccc(O)cc2O)C3)O1` [Glabridin], the IC50 at MAO-A [2] was found to be 12 µM; at MAO-B [3] it was 15.4 µM; at MAO-A [4] it was 26.8 µM; on MAO-B [5], 7.29 µM.
